# Assay results published in patent publication EP0219491B1, “OXINDOLE ALKALOIDS WITH PROPERTIES STIMULATING THE IMMUNITY SYSTEM AND PREPARATIONS CONTAINING THEM” (KEPLINGER, Klaus, priority 1984, dated 1986).
# Assays:
# [1] = system: Granulozyten; assay: Chemiluminescence test (CL), respiratory burst of phagocytes activated with opsonised Zymosan; assay type: cell-based
# Excerpt: Obwohl der Granulozytentest nach BRANDT eine zuverlässige Methode zur Ermittlung phagozytosesteigernder Eigenschaften von Substanzen und Extrakten darstellt, ist er sehr zeit- und personalaufwendig. Eine Alternative bietet die neue Methode der Chemilumineszenzmessung phagozytierender Zellen.
# Seitdem ALLEN et al. (Biochem. Biophys. Res. Commun, 47,129,1972) als erste die Lichtemission von neutrophilen Granulozyten während der Phagozytose von Latexpartikeln und verschiedener Bakterien entdeckten und NELSON et al. (Infect. Immun 14,129,1976) und WEIDEMANN et al. (FEBS Letters 89,136,1978) CL-Erscheinungen an phagozytierenden Blutmakrophagen (Monozyten) nachweisen konnten, wird diese Reaktion auch in der experimentellen und klinischen Immunologie angewendet. Der genaue Mechanismus der dabei ablaufenden Reaktion konnte allerdings bis heute noch nicht vollständig aufgeklärt werden. Zusammenfassend lässt sich die bei aktivierten Phagozyten auftretende CL folgendermassen darstellen: der Kontakt dieser Zellen mit Bakterien, Viren oder anderem körperfremden Material, z.B. auch chemische Substanzen, führt zunächst zu einer gesteigerten Sauerstoffaufnahme. Anschliessend werden in der Zelle aus dem molekularen Sauerstoff Superoxid-Anion-Radikale O2^- gebildet, die sich dann entweder spontan oder enzymatisch katalysiert in andere aktivierte Sauerstoffmoleküle, wie Wasserstoffperoxid (H202), Singulett-Sauerstoff (^1O2), Hydroxylradikale (OH) und Hypochlorit-Anionen (OCI-) umwandeln. Dieser Vorgang wird «respiratory burst» genannt.
# Durch die Freisetzung der aktivierten Sauerstoffmoleküle in die unmittelbare Umgebung der phagozytierenden Zelle, wie auch in die phagozytische Vakuole selbst und durch die Aktivierung lysosomaler Enzyme können eingedrungene Mikroorganismen oder Tumorzellen geschädigt oder getötet werden. Auch andere Moleküle sind daran beteiligt, so z.B. sogenannte kationische Proteine .und Laktoferrin. Die Zellwände der Mikroorganismen werden durch Oxidation oder Reduktion angegriffen und teilweise zerstört. Als Nebeneffekt tritt dabei CL auf, da das Zellwandmaterial als chemilumineszierendes Substrat für die aktivierten Sauerstoffmoleküle dient.
# Die geringe Lichtausbeute solcher CL-Reaktionen phagozytierender Zellen wird im in-vitro-Experiment durch den Zusatz von Substanzen erhöht, die durch aktivierten Sauerstoff oxidiert werden und dabei Licht bestimmter Wellenlänge erzeugen, welches physikalisch gemessen werden kann. Als Substrate eignen sich dabei Luminol (5-Amino-2,3-dihydro-1,4-phthalazindion) und Lucigenin (10,10'-Dimethyl-9,9'-biacridiniumdini- trat), welche die CL-Antwort um das 10^3fache steigern.
# Durch den Einsatz empfindlicher Messgeräte, in denen die Photonenzählung mit Hilfe von Photomultipliern erfolgt, lässt sich die durch die oben genannten Substanzen verstärkte CL messen. Es wurde ein 6-Kanal-CL-Gerät Biolumat^@ LB 9505 der Fa. Berthold benutzt, das sechs Testungen zur gleichen Zeit ermöglicht. Darüberhinaus erlaubte es das verwendete Gerät auch, die CL-Antwort zeitabhängig zu registrieren. So konnten den Dosis-Wirkungs- Kurven als dritte Dimension die zeitabhängige Wirkung hinzugefügt werden.
# Zur in-vitro-Untersuchung des phagozytosesteigenden Wirkung von Substanzen können entweder gereinigte Zellpopulationen von Granulozyten oder Makrophagen verwendet werden, oder die Messung erfolgt direkt in verdünntem Vollblut.
# Die Aktivierung der Phagozyten erfolgt dabei durch feste Partikel, z.B. opsonierte Bakterien, Zy- mosan^@ und Latexpartikel, oder durch bestimmte gelöste Substanzen. Bekannte Aktivatoren sind z.B. verschiedene lonophoren und Fluorid-lonen.
# • a) Vollblut: 460 µl Veronal®-gepufferte Kochsalzlösung • 200 µl verdünntes Vollblut • 100 pl Lucigenin-Lösung • 200 µl in PBS (phosphat-gepufferte Kochsalzlösung) gelöste Substanz bzw. PBS als Kontrolle • b) PMNL: 630 µl Veronal@-gepufferte Kochsalzlösung • 15 µl PMNL • 100 µl Lucigenin-Lösung 200 µl in PBS gelöste Substanz bzw. PBS als Kontrolle […]
# [2] = system: Granulozytenfraktion (PMNL-Fraktion); assay: Granulocyte test modified after BRANDT (phagocytosis of yeast cells by PMNL); assay type: cell-based, menschlichen Blut; conditions: for Wirksamkeit im Granulozytentest: summary in words
# Excerpt: Neutrophile Granulozyten sind zusammen mit Makrophagen die wichtigsten Effektorzellen der Phagozytose und nehmen damit eine wichtige Stellung in der Infektabwehr ein. Sie stellen etwa 60-70% aller weissen Blutkörperchen im menschlichen Blut dar. Der Phagozytoseleistung dieser Granulozyten lässt sich in vitro nach einer von BRANDT (Scand. J. Haematol. Suppl 2, 1967) entwickelten und vonTYMPNER (Münchn. Med. WSchr. 8, 251, 1978) modifizierten Methodik messen.
# Dabei wird aus dem Blut gesunder Probanden eine Granulozytenfraktion (PMNL-Fraktion) gewonnen.
# Diese PMNL-Fraktion besteht hauptsächlich aus neutrophilen Granulozyten neben wenig eosinophilen und basophilen Granulozyten sowie Lymphozyten, Monozyten und Thrombozyten. Nach Zusatz einer definierten Menge von Hefezellen (Saccharomyces cerevisiae) und der zu testenden Substanz wird zunächst 10 min bei 37° C inkubiert, die Aufschwemmung auf einem Objektträger ausgestrichen und weitere 35 min bei Raumtemperatur inkubiert. Anschliessend werden die Ausstriche angefärbt und mikroskopisch ausgewertet. Pro Objektträger werden 100 PMNL-Zellen ausgewählt und bestimmt, wieviele Hefepartikel von den einzelnen Zellen phagozytiert wurden. Der Phagozytoseindex (PJ) gibt die durchschnittliche Anzahl von phagozytierten Hefepartikeln pro Granulocyt an. Die Steigerung (S) der Phagozytoseaktivität im Blindwert wurde berechnet nach: [formula]
# [3] = system: Asciteszellen von Walker-250-Carcinosarkomen von Ratten; assay: Cytotoxicity by 3H-thymidine incorporation test on ascites cells; assay type: cell-based; conditions: Walker 256; 2 mg/ml; read-out: Mittelwert der Methotrexat-Hemmung
# Excerpt: Da im Granulozytentest einige Substanzen in hoher Konzentration die Granulozyten lysierten, wurde auch die zellschädigende Wirkung am Modell des 3H-Thymidineinbautests in Asciteszellen geprüft, um eine mögliche Beziehung zwischen Phagozytosesteigerung und Cytotoxizität auffinden zu können.
# In diesem in-vitro-Testsystem nach WEITZEL et al (Hoppe-Seyler's Z. Physiorog. Chem. 348, 433, 1967) kann die Cytotoxizität von Substanzen durch Hemmung der DNA-Synthese von Tumorzellen zahlenmässig durch die veränderten Einbauraten von ^3H-Tymidin in Asciteszellen von […] von Ratten erfasst werden.
# Die Ergebnisse wurden mit der Kontrolle verglichen und die Hemmeffekte in Prozent ausgedrückt. Relativierung der Testergebnisse Da die prozentuale Einbauhemmung bei gleichen Substanzen Schwankungen bis zu 30% zwischen einzelnen Versuchen zeigte, wurde Methotrexat®, welches als Folsäureantagonist die DNA-Synthese hemmt, als Bezugssubstanz in jeder Versuchsreihe mitgetestet. Der Mittelwert der Methotrexat®-Hemmung (43% bei 2 mg/ml) wurde zur Ermittlung der relativen Hemmung H der Substanzen herangezogen.
# [4] = system: Makrophagen-Phagozytose; assay: In vitro macrophage phagocytosis; assay type: cell-based; conditions: Konzentrationen von 10-^4% und 10-^5%
Molecule,Wirkung im Granulozytentest ([2]; tested up to 10^-4%),prozentuelle Phagozytosesteigerung ([2]; Konzentration 10^-2 (in %)),prozentuelle Phagozytosesteigerung ([2]; Konzentration 10^-3 (in %)),prozentuelle Phagozytosesteigerung ([2]; Konzentration 10^-4 (in %)),prozentuelle Phagozytosesteigerung ([2]; Konzentration 10^-5 (in %)),Wirksamkeit im Granulozytentest [2],further results
"COc1cccc2c1cc([N+](=O)[O-])c1c(C(=O)O)cc3c(c12)OCO3 [Aristolochiasäure, reference compound]",,,,,,,"Steigerung der Phagozytoseaktivität (respiratory burst) ([1]; CL-Test mit isolierten Granulozyten, Na-Salz): dosisabhängige Steigerung der Phagozytoseaktivität"
"COc1ccc2cc3[n+](cc2c1OC)CCc1cc2c(cc1-3)OCO2 [Berberin, reference compound]",unwirksam,,,,,,
"CC[C@@]1(O)C(=O)OCc2c1cc1n(c2=O)Cc2cc3ccccc3nc2-1 [Camotothecin, reference compound]",,,,,,,Wirkung im Granulozytentest ([2]; bis zu Verdünnungen von 10-^6%): keine Wirkungen
"O=c1cccc2n1C[C@@H]1CNC[C@H]2C1 [Cytisin, reference compound]",keine Wirkung,,,,,,
"C=C[C@]12CN(C)[C@@H]3[C@H]4CO[C@H](C[C@H]41)[C@]1(C(=O)Nc4ccccc41)[C@@H]32 [Gelsemin, reference compound]",,"22,1%","40,4%","33,7%","8,2%",,
"COC(=O)C1=CO[C@@H](C)[C@H]2CN3CC[C@@]4(C(=O)Nc5ccccc54)[C@@H]3C[C@H]12 [Isomitraphyllin, normal-Isomitraphyllin]",,"16,5%","27,0%","27,0%","19,4%",wirksamen,"prozentuelle Phagozytosesteigerung ([2]; Konzentration 10^-6 (in %)): 5,7%; prozentuelle Steigerung der CL-Antwort ([1]; Konzentration 10^-3 %): 15,4%; prozentuelle Steigerung der CL-Antwort ([1]; Konzentration 10^-4 %): 15,7%; prozentuelle Steigerung der CL-Antwort ([1]; Konzentration 10^-5 %): 36,1%; prozentuelle Steigerung der CL-Antwort ([1]; Konzentration 10^-6 %): 46,7%; prozentuelle Steigerung der CL-Antwort ([1]; Konzentration 10^-7 %): 18,6%"
"COC(=O)C1=CO[C@@H](C)[C@@H]2CN3CC[C@@]4(C(=O)Nc5ccccc54)[C@@H]3C[C@H]12 [Isopteropodin, allo-Isopteropodin]",,"23,4%","48,7%","55,0%","38,2%",wirksamen,"prozentuelle Phagozytosesteigerung ([2]; Konzentration 10^-6 (in %)): 28,2%; prozentuelle Phagozytosesteigerung ([2]; Konzentration 10^-7 (in %)): 13,6%; prozentuelle Steigerung der CL-Antwort ([1]; Konzentration 10^-3 %): 67,2%; prozentuelle Steigerung der CL-Antwort ([1]; Konzentration 10^-4 %): 66,0%; prozentuelle Steigerung der CL-Antwort ([1]; Konzentration 10^-5 %): 55,7%; prozentuelle Steigerung der CL-Antwort ([1]; Konzentration 10^-6 %): 68,1%; prozentuelle Steigerung der CL-Antwort ([1]; Konzentration 10^-7 %): 55,3%; prozentuelle Steigerung der CL-Antwort ([1]; Konzentration 10^-8 %): 31,2%"
CC[C@H]1CN2CC[C@@]3(C(=O)Nc4ccccc43)[C@@H]2C[C@@H]1/C(=C\OC)C(=O)OC [Isorhynchophyllin],,"10,8%","25,2%","27,3%","16,1%",wirksamen,"prozentuelle Phagozytosesteigerung ([2]; Konzentration 10^-6 (in %)): 8,8%"
CN(Cc1cnc2nc(N)nc(N)c2n1)c1ccc(C(=O)N[C@@H](CCC(=O)O)C(=O)O)cc1 [Methotrexat],,,,,,,inhibition at 2000 µg/mL [3]: 43%
"COC(=O)C1=CO[C@@H](C)[C@H]2CN3CC[C@]4(C(=O)Nc5ccccc54)[C@@H]3C[C@H]12 [Mitraphyllin, normal-Mitraphyllin]",,,,,,nicht wirksamen,
"COC(=O)C1=CO[C@@H](C)[C@@H]2CN3CC[C@]4(C(=O)Nc5ccccc54)[C@@H]3C[C@H]12 [Pteropodin, allo-Pteropodin]",,"11,2%","21,7%","26,1%","23,0%",wirksamen,"prozentuelle Steigerung der CL-Antwort ([1]; Konzentration 10^-3 %): 10,6%; prozentuelle Steigerung der CL-Antwort ([1]; Konzentration 10^-4 %): 10,0%; prozentuelle Steigerung der CL-Antwort ([1]; Konzentration 10^-5 %): 23,7%; prozentuelle Steigerung der CL-Antwort ([1]; Konzentration 10^-6 %): 15,4%"
CC[C@H]1CN2CC[C@]3(C(=O)Nc4ccccc43)[C@@H]2C[C@@H]1/C(=C\OC)C(=O)OC [Rhynchophyllin],,,,,,nicht wirksamen,
"C1CCN2C[C@@H]3C[C@@H](CN4CCCC[C@@H]34)[C@H]2C1 [Spartein, reference compound]",keine Wirkung,,,,,,
"COC(=O)C1=CO[C@@H](C)[C@@H]2CN3CC[C@@]4(C(=O)Nc5ccccc54)[C@H]3C[C@H]12 [Speciophyllin, reference compound]",,"10,5%","18,5%","26,0%","35,3%",,
"CC[C@]1(O)C[C@H]2CN(CCc3c([nH]c4ccccc34)[C@@](C(=O)OC)(c3cc4c(cc3OC)N(C=O)[C@H]3[C@@](O)(C(=O)OC)[C@H](OC(C)=O)[C@]5(CC)C=CCN6CC[C@]43[C@@H]65)C2)C1 [Vincristin, reference compound]",,,,,,,Wirkung im Granulozytentest ([2]; bis zu Verdünnungen von 10-^6%): keine Wirkungen; in-vitro-Hemmung der Makrophagen-Phagozytose [4]: in-vitro-Hemmung der Makrophagen-Phagozytose
Huangshanin [reference compound],Negativ,,,,,,
Thalifaberin [reference compound],Negativ,,,,,,
Thalifabin [reference compound],Negativ,,,,,,
